# Experimental data as given in ChEMBL document CHEMBL1157539, “Thousands of chemical starting points for antimalarial lead identification” (Nature, 2010).
# System: Plasmodium falciparum
# Assay: GSK_TCMDC: Inhibition of Plasmodium falciparum 3D7 in whole erythrocytes, using parasite LDH activity as an index of growth.
# Format: functional, organism-based
# Settings: Plasmodium falciparum, 3D7
row,Structure (SMILES),XC50 [nM]
1,C=CCOc1ccccc1CNCC(O)c1cccc(C(F)(F)F)c1 (stereo unspecified),845
2,Cc1[nH]c(C)c(-c2ccc(Oc3cccc(C(F)(F)F)c3)cc2)c(=O)c1Br,7.69
3,CN(CCN1CCC(c2c[nH]c3ccccc23)CC1)C(=O)OCCCCCNC(=O)/C=C/c1ccc(Cl)c(Cl)c1,678
4,CC(C)CCC[C@@H]([C@@H](CC1CCCCC1)C(=O)N[C@@H](CCCCNC(=O)OCc1ccccc1)C(=O)Nc1nccs1)N(O)C=O,457
5,CNC(=O)CC(=O)NCCc1ccc(Cl)cc1,811
6,Clc1cc(Nc2ncnc3sc(C#Cc4ncc[nH]4)cc23)ccc1OCc1ccccn1,1110
7,CN(C)C(CNc1ncnc2cc(Cl)ccc12)Cc1ccccc1 (stereo unspecified),872
8,CCCCCCCCc1nc(C)c(Br)c(O)c1Br,178
9,COc1cccc(Nc2nccc(NCC(O)c3cccc(C(F)(F)F)c3)n2)c1 (stereo unspecified),702
10,CC(C)n1cc2c(ccc3nc(N)nc(N)c32)n1,36.9
11,CCN(C1CCCCC1)S(=O)(=O)c1ccc(OC)c(N2CCN(C(=O)C(Cl)(Cl)Cl)CC2)c1,635
12,c1ccc2nc(NCCCCCCCCNc3ccc4ccccc4n3)ccc2c1,272
13,COc1ccc(CC(=O)Nc2ccc(-c3cccc(-c4nc5cccc(C)c5[nH]4)c3)cc2)cc1O,452
14,Cc1cccc(NC(=O)N(Cc2cc3cc(C)cc(C)c3[nH]c2=O)C2CC2)c1,336
15,CNC(=O)C(C)N(c1ccc(Cl)cc1)c1nc(C(C)(C)C)cs1 (stereo unspecified),741
16,c1ccc(Oc2ccc(Nc3nncc4ccccc34)cc2)cc1,686
17,CCC[C@@H](C(=O)NCCc1cccc(OC)c1)N1C(=O)c2c(ccc(OC)c2OC)C1C(=O)Nc1c(C)cccc1C (stereo partly specified),808
18,CC1(C)C(N(O)C(=O)Nc2ccc(Cl)c(Cl)c2)N(c2ccc(Cl)c(Cl)c2)C(=O)N1CCc1ccccc1 (stereo unspecified),823
19,O=C(Cc1c[nH]cn1)Nc1cccc(-c2cccc(-c3nc4cc(C(F)(F)F)ccc4[nH]3)c2)c1,225
20,COc1ccc2ccccc2c1CCCCN1CCN(CC(c2ccc(F)cc2)N2CCN(C(C)C)CC2)CC1 (stereo unspecified),809
21,O=C(Cc1ccccc1)NC(CCN1CCC(O)(c2cccc(C(F)(F)F)c2)CC1)c1ccc(Cl)c(Cl)c1 (stereo unspecified),855
22,CC(C)(C)c1ccc(OCCCON2C(=N)N=C(N)NC2(C)C)c(C(C)(C)C)c1,3.2
23,Cc1cc(Nc2cccc(C(F)(F)F)c2)nc(Nc2cccc(C(F)(F)F)c2)n1,644
24,Cc1nnsc1C(=O)Nc1cccc(-c2ccc(-c3nc4cccc(C)c4[nH]3)s2)c1,1120

row,Structure (SMILES),XC50 [nM]
1,O=[N+]([O-])c1cccc(NC(=S)N2CCCN(Cc3ccc(F)cc3F)CC2)c1,831
2,c1ccc2ncc(CNCCCCCCCCNCc3cnc4ccccc4c3)cc2c1,846
3,CC1CN(c2ccc3occ(C(=O)Nc4ccc(-c5ccncc5)c(Cl)c4)c3c2)CC(C)N1C (stereo unspecified),855
4,Cc1cc(N(C)C)nc(Nc2ccc(NC(=O)CCc3ccccc3)cc2)n1,850
5,O=C(/C=C/c1ccc(Cl)c(Cl)c1)NCCCCCN1CCC(CCNC(=O)c2snnc2-c2ccccc2)CC1,822
6,O=C(Nc1ccc([N+](=O)[O-])cc1O)Nc1ccccc1Oc1ccccc1,925
7,O=C(NCC1CCC(C(=O)O)CC1)c1ccc(/C=C/C(=O)N2CCc3ccccc3C2c2ccc3c(c2)OCO3)cc1 (stereo unspecified),892
8,COc1cc(NC(=O)/C=C/c2cc(F)cc(F)c2F)cc(OCCN2CCC(O)(c3ccccc3)CC2)c1,166
9,O=C(/C=C/c1ccsc1)N1CCC(CCN2CCC(c3c[nH]c4ccccc34)CC2)CC1,905
10,FC(F)(F)c1ccc2[nH]c(-c3ccc(-c4ccc(CN5CCN(c6ccncc6)CC5)cc4)cc3)nc2c1,62.4
11,CCCC(C)Nc1nc(C)cc(N[C@@H](CC(C)C)C(=O)NC2CCCC2)n1 (stereo partly specified),1080
12,COc1ccccc1NC(=O)Nc1ccc(-c2ccc(-c3nc4cc(C(F)(F)F)ccc4[nH]3)cc2)cc1,544
13,COc1ccc2ncc(F)c(CCN3C4CCC3CC(NCc3cc5c(cn3)OCS5)C4)c2n1 (stereo unspecified),923
14,N=C(N)NCCN(Cc1ccccc1)c1ccc(Cl)cc1,48
15,N#Cc1ccc2c(c1)CCN(CCC1CCC(NC(=O)c3cccc(-c4ccc(F)cc4)c3)CC1)CC2 (stereo unspecified),822
16,CS(=O)(=O)Cc1ccc(Nc2ncc(Cl)c(Nc3cccnc3C(N)=O)n2)cc1,868
17,O=C(NCC1CCC(C(=O)NC2CCCc3ccccc32)CC1)c1ccc(O)c(-c2ccc(Cl)c(Cl)c2)c1 (stereo unspecified),1020
18,N#Cc1ccc2c(c1)CCN(CCC1CCC(NC(=O)c3cc4cccc(Cl)c4[nH]3)CC1)CC2 (stereo unspecified),576
19,COc1ccc(F)cc1-c1ccccc1CNC(=O)CN(C)S(=O)(=O)c1cc(C)cc(Cl)c1C,665
20,Cc1noc(C)c1-c1cccc(CNCc2ccc(-c3ccc(-c4nc5cc(C(F)(F)F)ccc5[nH]4)s3)cc2)c1,181
21,CC(C)(C)COc1ccc2c(N)n[nH]c2c1,789
22,Nc1nccc2ccc(-c3ccnc(NCc4cccnc4)n3)cc12,462
23,c1ccc(CN2CCC(NCc3ccc(-c4cncc5ccccc45)cc3)CC2)cc1,877
24,CC1CN(c2ccnc3ccc(Sc4ccc(Oc5ccccc5)cc4)cc23)CC(C)N1 (stereo unspecified),785

row,Structure (SMILES),XC50 [nM]
1,Cc1cc(=NN=Cc2ccccc2F)c2cc(C(F)(F)F)ccc2[nH]1,433
2,O=C(c1ccccc1NN=C1C(=O)N(c2ccccc2)N=C1c1ccccc1)N1CCOCC1,351
3,CCOC(=O)c1c(NC(=O)c2ccccc2)sc2c(O)c(CNC3CCCCC3)ccc12,752
4,Cc1[nH]c(C)c(-c2ccc(Oc3ccc(Cl)cc3)cc2)c(=O)c1C,385
5,CCc1ccc(C2CCN(CCCCNC(=O)c3ccc(NC(=O)c4ccc(Cl)cc4)cc3)CC2)c(OCC(=O)OC)c1,1030
6,CN1CCCC(CN2CCN(Cc3ccc(-c4ccc(-c5nc6cc(F)ccc6[nH]5)cc4)cc3)CC2)C1 (stereo unspecified),117
7,COc1cccc(C2=CC(C)(C)Oc3cc(OCCN(C)C)ccc32)c1,794
8,Cc1c2ccncc2c(C)c2c1[nH]c1cc(Cc3ccccc3)c(O)cc12,148
9,CC1C(c2cccc(Cl)c2)OCC(C)(C)N1C(=O)CCN1CCCCC1 (stereo unspecified),923
10,O=C(c1cc(C(=O)Nc2ccccc2F)c(=O)n(-c2ccccc2F)c1)c1cc(Cl)ccc1O,705
11,CC(NCCC1CCC(NC(=O)N[C@H](C)C(O)(c2ccccc2)c2ccccc2)CC1)c1cccc2ccccc12 (stereo partly specified),1100
12,CN1CCCC(CN2CCN(Cc3cccc(-c4ccc(-c5nc6cc(F)ccc6[nH]5)cc4)c3)CC2)C1 (stereo unspecified),139
13,Clc1ccc(Nc2nc(-c3ccccn3)cs2)nc1,774
14,O=C(Nc1ccccc1)N(Cc1ccc(-c2ccc(CNC3CCCC3)cc2)cc1)C1CCN(Cc2ccccc2)CC1,408
15,CCCCN(CCCC)C(=O)CC(O)c1cc2c(Cl)cc(Cl)cc2c2cc(C(F)(F)F)ccc12 (stereo unspecified),1210
16,COc1ccc(Nc2ncc3c(-c4cccc(NC(=O)Cc5ccncc5)c4)c[nH]c3n2)cc1OC,1230
17,N#Cc1cc(C(=O)Nc2ccccc2)c(N)nc1SCC(=O)NC(c1ccccc1)c1cccs1 (stereo unspecified),605
18,Cc1cccc(NC(=O)Nc2cccc(-c3ccc(-c4nc5cc(C(F)(F)F)ccc5[nH]4)cc3)c2)c1,905
19,FC(F)(F)c1ccc2[nH]c(-c3ccc(-c4ccc(CNCC5CCCO5)cc4)s3)nc2c1 (stereo unspecified),158
20,O=C(/C=C/c1ccc(Cl)c(Cl)c1)NCCCCCN1CCCN(C(=O)Nc2ccc(Br)cc2)CC1,777
21,COC(=O)c1ccc(CCCNCC(O)c2cccc(C(F)(F)F)c2)cc1 (stereo unspecified),803
22,Nc1ccc(-c2nc3cc(Cc4ccc5[nH]c(-c6ccc(N)cc6)nc5c4)ccc3[nH]2)cc1,512
23,Cc1c[nH]c2ccc(/C=C/C(=O)NC3CCC(CCN4CCc5ccc(C#N)cc5CC4)CC3)cc12 (stereo unspecified),828
24,CC(C)CC1c2[nH]c3ccccc3c(=O)c2CN1C(=O)OC(C)(C)C (stereo unspecified),221

row,Structure (SMILES),XC50 [nM]
1,CC(=O)Nc1ccc2[nH]cc(C3CCN(CC4CCC(NC(=O)/C=C/c5ccccc5Cl)CC4)CC3)c2n1 (stereo unspecified),364
2,Cc1c(F)cc(C(=O)NC2CC2)cc1-c1ccc2c(c1)c(C)nn2S(=O)(=O)c1cccs1,942
3,CCCC[C@H](NC(=O)OC(C)(C)C)C(=O)Nc1ccc(Cc2ccc(NC(=O)[C@H](CCCC)NC(=O)OC(C)(C)C)cc2)cc1,733
4,O=C(Nc1ccc(-c2cccc(-c3nc4cc(C(F)(F)F)ccc4[nH]3)c2)cc1)c1csnn1,802
5,O=C(N[C@@H](Cc1ccccc1)C(=O)NCCN1CCCCC1)c1ccc(O)c(-c2cccc(C(F)(F)F)c2)c1,850
6,CN1CCC(NCCS(=O)(=O)c2cccc(Nc3ccc(-c4cccc(F)c4)cn3)c2)CC1,1360
7,CNc1nc(Nc2ccccc2C)nc2ccccc12,443
8,CCCc1cccc(OC)c1OCCCON1C(N)=NC(N)=NC1(C)C,3.2
9,CS(=O)(=O)CCNc1cc(N2CCc3ncnc(Nc4ccc(OCc5cccc(F)c5)c(Cl)c4)c3C2)ncn1,873
10,CN(Cc1ccccc1)C(=O)c1nn(CCCN2CCC(N3CCCC3)CC2)cc1-c1ccc(Cl)c(Cl)c1,767
11,O=C(Nc1ccc(-c2cccc(-c3nc4ccccc4[nH]3)c2)cc1)NC1CC1c1ccccc1 (stereo unspecified),630
12,CC(C)(C)c1cc(NC(=O)c2ccc(Cl)c([N+](=O)[O-])c2)cc(C(C)(C)C)c1,1030
13,CN1CCN(c2ccnc3ccc(NC(=O)Nc4c(Cl)cccc4Cl)cc23)CC1,877
14,CC(=O)Nc1cccc(C(=O)Nc2cccc(-c3csc(-c4nc5ccccc5[nH]4)c3)c2)c1,181
15,CC(C)CNCc1cccc(-c2ccc(CNc3ccc(C(=O)c4ccccc4)cc3)cc2)c1,760
16,COC(=O)c1ccc(N2CCN(CCCCNC(=O)c3ccc(NC(=O)c4ccc(Cl)cc4)cc3)CC2)c(OC)c1,1300
17,CC(C)(C)C(=O)Nc1ccc(C(=O)Nc2cccc(-c3nc4ccccc4[nH]3)c2)cc1,282
18,CC(C)CCN1CCCN(Cc2ccc(C(=O)Nc3ccc(Cl)cc3)cc2)CC1,796
19,COc1cccc(C=CC(=O)NC2CCC(CN3CCC(c4c[nH]c5ccccc45)CC3)CC2)c1OC (stereo unspecified),740
20,O=C(/C=C/c1ccc(Cl)c(Cl)c1)N1CCCC(CCCN2CCC(c3c[nH]c4ccccc34)CC2)C1 (stereo unspecified),1090
21,CN1CCN(CCCCCNc2c3ccccc3nc3ccccc23)CC1,741
22,CCCCCN1C(=O)N(c2ccc(Cl)c(Cl)c2)C(N(O)C(=O)Nc2ccc(Cl)c(Cl)c2)C1(C)C (stereo unspecified),545
23,Oc1cccc(-c2nc3cc(C4=NC5CCCCC5N4)ccc3[nH]2)c1 (stereo unspecified),592
24,Cn1nc(C(F)(F)F)c(-c2ccc(Br)cc2)c1NC(=O)Cc1ccccc1F,157
